Measurements taken from the supplement of paper PMC10307832.

Assays:
Experiment in all cases: relative viability (nuclei count vs DMSO), 5 days (fraction); higher = more cells survive
[1] = compound: Nc1ccn([C@@H]2O[C@H](CO)[C@@H](O)C2(F)F)c(=O)n1 [Gemcitabine] + CC(C)C[C@H](NC(=O)[C@H](Cc1ccccc1)NC(=O)c1cnccn1)B(O)O [Bortezomib] (partner 0.002 µM)
How it was run: (§1)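 Cells from lung cancer lines were seeded into 1536-well plates and, one day later, dosed by pin tool. Treatments were either a single drug or a fixed dose of an anchor drug with five library-drug doses (not always all listed) in √10 steps. After 5 days, nuclei were stained in a one-step fixation (final 0.05% Triton X-100, 1% formaldehyde, 1 ug/ml Hoechst) and counted on 4× images, and relative viability is the treated-to-vehicle nuclei ratio, as the median of duplicate plates.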

[2] = compound: Nc1ccn([C@@H]2O[C@H](CO)[C@@H](O)C2(F)F)c(=O)n1 [Gemcitabine] + COc1cc2c(Oc3ccc(NC(=O)C4(C(=O)Nc5ccc(F)cc5)CC4)cc3F)ccnc2cc1OCCCN1CCOCC1 [Foretinib] (partner 0.25 µM)
How it was run: as §1

[3] = compound: Nc1ccn([C@@H]2O[C@H](CO)[C@@H](O)C2(F)F)c(=O)n1 [Gemcitabine] + CS(=O)(=O)N1CCN(Cc2cc3nc(-c4cccc5[nH]ncc45)nc(N4CCOCC4)c3s2)CC1 [Pictilisib] (partner 1 µM)
How it was run: as §1

[4] = compound: Nc1ccn([C@@H]2O[C@H](CO)[C@@H](O)C2(F)F)c(=O)n1 [Gemcitabine] + CC(=O)c1c(C)c2cnc(Nc3ccc(N4CCNCC4)cn3)nc2n(C2CCCC2)c1=O [Palbociclib] (partner 0.5 µM)
How it was run: as §1

Row | Cell Line | relative viability ([1]; first compound 0.001 µM) | relative viability ([1]; first compound 0.003162 µM) | relative viability ([1]; first compound 0.01 µM) | relative viability ([1]; first compound 0.03162 µM) | relative viability ([1]; first compound 0.1 µM) | relative viability ([2]; first compound 0.001 µM) | relative viability ([2]; first compound 0.003162 µM) | relative viability ([2]; first compound 0.01 µM) | relative viability ([2]; first compound 0.03162 µM) | relative viability ([2]; first compound 0.1 µM) | relative viability ([3]; first compound 0.001 µM) | relative viability ([3]; first compound 0.003162 µM) | relative viability ([3]; first compound 0.01 µM) | relative viability ([3]; first compound 0.03162 µM) | relative viability ([3]; first compound 0.1 µM) | relative viability ([4]; first compound 0.001 µM) | relative viability ([4]; first compound 0.003162 µM) | relative viability ([4]; first compound 0.01 µM) | relative viability ([4]; first compound 0.03162 µM) | relative viability ([4]; first compound 0.1 µM)
1 | NCI-H1355 | 1.17 | 0.948 | 0.521 | 0.145 | 0.16 | 0.858 | 0.7 | 0.247 | 0.2 | 0.187 | 0.409 | 0.343 | 0.202 | 0.127 | 0.124 | 0.403 | 0.365 | 0.251 | 0.168 | 0.146
2 | NCI-H1437 | 0.532 | 0.395 | 0.342 | 0.127 | 0.105 | 1.28 | 1.14 | 0.867 | 0.442 | 0.209 | 0.409 | 0.457 | 0.258 | 0.118 | 0.0772 | 0.317 | 0.351 | 0.331 | 0.225 | 0.171
3 | NCI-H1650 | 0.189 | 0.18 | 0.175 | 0.147 | 0.133 | 1.28 | 0.666 | 0.374 | 0.179 | 0.145 | 0.524 | 0.466 | 0.267 | 0.181 | 0.144 | 0.339 | 0.308 | 0.261 | 0.186 | 0.127
4 | NCI-H1651 | 0.988 | 0.89 | 0.919 | 0.885 | 0.173 | 0.805 | 0.771 | 0.596 | 0.137 | 0.0964 | 0.501 | 0.54 | 0.409 | 0.136 | 0.0858 | 0.509 | 0.496 | 0.536 | 0.311 | 0.136
5 | NCI-H1666 | 0.739 | 0.979 | 0.567 | 0.24 | 0.225 | 0.9 | 0.991 | 0.889 | 0.619 | 0.428 | 0.326 | 0.471 | 0.306 | 0.284 | 0.274 | 0.603 | 0.664 | 0.651 | 0.596 | 0.578
6 | NCI-H1734 | 1.08 | 0.862 | 0.199 | 0.157 | 0.102 | 0.781 | 0.653 | 0.287 | 0.131 | 0.126 | 0.455 | 0.387 | 0.233 | 0.151 | 0.113 | 0.318 | 0.293 | 0.174 | 0.149 | 0.131
7 | NCI-H1755 | 0.952 | 0.958 | 0.84 | 0.343 | 0.312 | 1 | 0.909 | 0.879 | 0.564 | 0.29 | 0.417 | 0.45 | 0.355 | 0.249 | 0.188 | 0.431 | 0.425 | 0.401 | 0.414 | 0.421
8 | NCI-H1915 | 0.978 | 1 | 0.969 | 0.825 | 0.617 | 1.1 | 1.1 | 1.04 | 0.908 | 0.468 | 1.02 | 0.949 | 0.909 | 0.857 | 0.229 | 0.522 | 0.532 | 0.508 | 0.425 | 0.22
9 | NCI-H1975 | 0.385 | 0.401 | 0.207 | 0.198 | 0.155 | 1.03 | 0.962 | 0.555 | 0.156 | 0.138 | 0.315 | 0.282 | 0.229 | 0.168 | 0.136 | 0.638 | 0.502 | 0.48 | 0.148 | 0.122
10 | NCI-H1993 | 1.08 | 1.15 | 0.713 | 0.524 | 0.446 | 0.561 | 0.833 | 0.61 | 0.63 | 0.588 | 0.855 | 0.804 | 0.651 | 0.695 | 0.647 | 0.656 | 0.575 | 0.524 | 0.443 | 0.379
11 | NCI-H2009 | 1.06 | 0.586 | 0.133 | 0.111 | 0.0676 | 1.26 | 0.938 | 0.404 | 0.185 | 0.153 | 0.872 | 0.419 | 0.157 | 0.128 | 0.101 | 0.216 | 0.203 | 0.193 | 0.132 | 0.0838
12 | NCI-H2023 | 1.12 | 1.11 | 0.241 | 0.104 | 0.0584 | 0.966 | 0.643 | 0.586 | 0.124 | 0.0582 | 0.248 | 0.266 | 0.143 | 0.106 | 0.0734 | 0.354 | 0.39 | 0.218 | 0.138 | 0.0722
13 | NCI-H2085 | 1.02 | 0.964 | 0.897 | 0.682 | 0.405 | 0.897 | 0.889 | 0.598 | 0.431 | 0.241 | 0.45 | 0.448 | 0.461 | 0.344 | 0.347 | 0.441 | 0.433 | 0.316 | 0.314 | 0.3
14 | NCI-H2087 | 0.743 | 0.569 | 0.581 | 0.155 | 0.166 | 1.14 | 0.708 | 0.245 | 0.164 | 0.111 | 0.73 | 0.662 | 0.386 | 0.193 | 0.199 | 0.266 | 0.197 | 0.193 | 0.165 | 0.136
15 | NCI-H2126 | 1.05 | 1.1 | 1.04 | 0.985 | 0.67 | 1.15 | 1.17 | 1.15 | 0.674 | 0.324 | 0.474 | 0.485 | 0.479 | 0.349 | 0.278 | 0.323 | 0.367 | 0.312 | 0.29 | 0.281
16 | NCI-H2228 | 0.98 | 1.06 | 0.281 | 0.198 | 0.126 | 0.913 | 0.536 | 0.198 | 0.183 | 0.0975 | 0.375 | 0.417 | 0.294 | 0.236 | 0.123 | 0.734 | 0.229 | 0.142 | 0.135 | 0.106
17 | NCI-H2347 | 0.621 | 0.961 | 0.534 | 0.653 | 0.401 | 0.817 | 0.731 | 0.826 | 0.492 | 0.35 | 0.554 | 0.655 | 0.648 | 0.385 | 0.348 | 0.412 | 0.432 | 0.404 | 0.364 | 0.325
18 | NCI-H2405 | 0.974 | 0.957 | 0.582 | 0.275 | 0.231 | 0.996 | 1 | 0.676 | 0.254 | 0.229 | 0.432 | 0.255 | 0.272 | 0.2 | 0.122 | 0.527 | 0.483 | 0.422 | 0.203 | 0.188
19 | NCI-H3122 | 1.08 | 0.985 | 0.889 | 0.303 | 0.24 | 0.94 | 0.959 | 0.89 | 0.123 | 0.0966 | 0.648 | 0.595 | 0.553 | 0.265 | 0.159 | 0.195 | 0.177 | 0.175 | 0.119 | 0.148
20 | PC-3 [JPC-3] | 0.835 | 0.785 | 0.512 | 0.286 | 0.237 | 1.15 | 0.847 | 0.605 | 0.28 | 0.228 | 0.847 | 0.61 | 0.514 | 0.33 | 0.286 | 0.512 | 0.472 | 0.499 | 0.471 | 0.443
21 | PC-14 | 0.867 | 0.507 | 0.42 | 0.0489 | 0.0512 | 0.953 | 0.649 | 0.293 | 0.0827 | 0.0507 | 0.684 | 0.435 | 0.139 | 0.036 | 0.0292 | 0.547 | 0.2 | 0.0649 | 0.0528 | 0.0391
22 | RERF-LC-KJ | 1.12 | 1.25 | 0.92 | 0.559 | 0.294 | 0.942 | 0.89 | 0.958 | 0.799 | 0.326 | 0.775 | 0.458 | 0.408 | 0.304 | 0.168 | 1.06 | 1.02 | 0.991 | 0.356 | 0.255
23 | SK-LU-1 | 1.16 | 0.281 | 0.23 | 0.175 | 0.224 | 0.728 | 0.441 | 0.217 | 0.168 | 0.164 | 0.6 | 0.537 | 0.213 | 0.172 | 0.192 | 0.386 | 0.312 | 0.283 | 0.184 | 0.221
24 | SW 1573 | 1.16 | 0.853 | 0.538 | 0.086 | 0.0926 | 1.03 | 0.776 | 0.32 | 0.131 | 0.0835 | 0.543 | 0.272 | 0.178 | 0.086 | 0.0746 | 0.432 | 0.308 | 0.131 | 0.0954 | 0.0788
25 | UMC-11 | 0.979 | 0.693 | 0.677 | 0.669 | 0.158 | 1.17 | 1.1 | 0.948 | 0.764 | 0.391 | 0.942 | 0.908 | 0.821 | 0.714 | 0.228 | 0.295 | 0.36 | 0.287 | 0.284 | 0.233
